Calls of active or inactive are those of the source. The rule behind the calls is not given here.
Columns and labels:
M21 = assay: Antiproliferative activity against human M21 cells assessed as cell growth inhibition incubated for 48 hrs by sulforhodamine B assay; type: functional, cell-based; settings: M21, 48 h
MCF7 [1] = assay: Induction of cell cycle arrest in human MCF7 cells expressing CYP1A1 assessed as accumulation of cells at S phase at 15 nM incubated for 48 hrs by DAPI staining based flow cytometric analysis (reference value: 11+/-1 %); type: functional
[2] = Selectivity ratio, ratio of IC50 for antiproliferative activity against human HT-1080 cells to IC50 for antiproliferative activity against human HT-1080 cells expressing CYP1A1; type: functional
[3] = Selectivity ratio, ratio of IC50 for antiproliferative activity against human HT-29 cells to IC50 for antiproliferative activity against human MCF7 cells expressing CYP1A1; type: functional
MCF7 [4] = assay: Induction of cell cycle arrest in human MCF7 cells expressing CYP1A1 assessed as accumulation of cells at G0/G1 phase at 15 nM incubated for 48 hrs by DAPI staining based flow cytometric analysis (reference value: 74+/-2 %); type: functional
HT-1080 [5] = assay: Antiproliferative activity against human HT-1080 cells assessed as cell growth inhibition incubated for 48 hrs by sulforhodamine B assay; type: functional, cell-based; settings: HT-1080, 48 h
MCF7 [6] = assay: Induction of cell cycle arrest in human MCF7 cells expressing CYP1A1 assessed as accumulation of cells at G2/M phase at 15 nM incubated for 48 hrs by DAPI staining based flow cytometric analysis (reference value: 16+/-2 %); type: functional
HT-1080 [7] = assay: Antiproliferative activity against human HT-1080 cells transfected with empty vector assessed as cell growth inhibition incubated for 48 hrs by sulforhodamine B assay; type: functional, cell-based; settings: HT-1080, 48 h
HT-1080 [8] = assay: Antiproliferative activity against human HT-1080 cells expressing CYP1A1 assessed as cell growth inhibition incubated for 48 hrs by sulforhodamine B assay; type: functional, cell-based; settings: HT-1080, 48 h
MCF7 [9] = assay: Antiproliferative activity against human MCF7 cells expressing CYP1A1 assessed as cell growth inhibition incubated for 48 hrs by sulforhodamine B assay; type: functional, cell-based; settings: MCF7, 48 h
[10] = Selectivity ratio, ratio of IC50 for antiproliferative activity against human HT-1080 cells transfected with empty vector to IC50 for antiproliferative activity against human HT-1080 cells expressing CYP1A1; type: functional
[11] = Selectivity ratio, ratio of IC50 for antiproliferative activity against human M21 cells to IC50 for antiproliferative activity against human MCF7 cells expressing CYP1A1; type: functional
HT-29 = assay: Antiproliferative activity against human HT-29 cells assessed as cell growth inhibition incubated for 48 hrs by sulforhodamine B assay; type: functional, cell-based; settings: HT-29, 48 h
MCF7 [12] = assay: Induction of cell cycle arrest in human MCF7 cells expressing CYP1A1 assessed as accumulation of cells at G0/G1 phase at 25 nM incubated for 48 hrs by DAPI staining based flow cytometric analysis (reference value: 74+/-2 %); type: functional
HT-1080 [13] = assay: Antitumor activity against human HT-1080 cells transfected with empty vector xenografted in chick embryo assessed as reduction in tumor wet weight at 1 ug, iv incubated for 17 days by CAM assay; type: functional; parameters: scale not given: the % may be the effect or the level left; settings: dose 1 µg, time 17 day
MDA-MB-231 = assay: Antiproliferative activity against ER/PR/HER2-negative human MDA-MB-231 cells assessed as cell growth inhibition incubated for 72 hrs by sulforhodamine B assay; type: functional, cell-based; settings: MDA-MB-231, 72 h
MCF7 [14] = assay: Induction of cell cycle arrest in human MCF7 cells expressing CYP1A1 assessed as accumulation of cells at G2/M phase at 25 nM incubated for 48 hrs by DAPI staining based flow cytometric analysis (reference value: 16+/-2 %); type: functional
[15] = Selectivity ratio, ratio of IC50 for antiproliferative activity against ER/PR/HER2-negative human MDA-MB-231 cells to IC50 for antiproliferative activity against ER/PR/HER2-negative human MDA-MB-468 cells; type: functional
Tubulin (Homo sapiens) = Tubulin (Homo sapiens) (UniProt P68371+Q9H4B7+P0DPH7+P68366+Q13509+Q71U36+P04350+Q3ZCM7+P07437+P68363+Q9BQE3+Q6PEY2+Q13885+Q9BVA1+Q9BUF5); assay: Disruption of microtubules in human MCF7 cells expressing CYP1A1 assessed as cytoskeleton disruption at 15 nM measured after 48 hrs by DAPI staining based fluorescence microscopic analysis; type: cell-based
MCF7 [16] = assay: Induction of cell cycle arrest in human MCF7 cells expressing CYP1A1 assessed as accumulation of cells at S phase at 25 nM incubated for 48 hrs by DAPI staining based flow cytometric analysis (reference value: 11+/-1 %); type: functional
HT-1080 [17] = assay: Antitumor activity against human HT-1080 cells expressing CYP1A1 xenografted in chick embryo assessed as reduction in tumor wet weight at 1 ug, iv incubated for 17 days by CAM assay; type: functional; parameters: scale not given: the % may be the effect or the level left; settings: dose 1 µg, time 17 day
HT-1080 [18] = assay: Antitumor activity against human HT-1080 cells xenografted in chick embryo assessed as reduction in tumor wet weight at 1 ug, iv incubated for 17 days by CAM assay; type: functional; parameters: scale not given: the % may be the effect or the level left; settings: dose 1 µg, time 17 day
[19] = Selectivity ratio, ratio of IC50 for antiproliferative activity against ER/PR/HER2-negative human MDA-MB-231 cells to IC50 for antiproliferative activity against ER/PR-negative HER2-positive human SK-BR-3 cells; type: functional
T47D = assay: Antiproliferative activity against ER/PR-positive HER2-negative human T47D cells assessed as cell growth inhibition incubated for 72 hrs by sulforhodamine B assay; type: functional, cell-based
[20] = Toxicity in chick embryo xenografted with human […] cells expressing CYP1A1 assessed as mortality at 1 ug, iv incubated for 17 days; type: organism-based, Gallus gallus; settings: chicken, in vivo, 408 h, dose 1 µg, time 17 day
MDA-MB-468 = assay: Antiproliferative activity against ER/PR/HER2-negative human MDA-MB-468 cells assessed as cell growth inhibition incubated for 72 hrs by sulforhodamine B assay; type: functional, cell-based; settings: MDA-MB-468, 72 h
[21] = Selectivity ratio, ratio of IC50 for antiproliferative activity against ER/PR/HER2-negative human MDA-MB-231 cells to IC50 for antiproliferative activity against ER/PR-positive HER2-negative human T47D cells; type: functional
[22] = Toxicity in chick embryo xenografted with human […] cells transfected with empty vector assessed as mortality at 1 ug, iv incubated for 17 days; type: organism-based, Gallus gallus; settings: chicken, in vivo, 408 h, dose 1 µg, time 17 day
SK-BR-3 = assay: Antiproliferative activity against ER/PR-negative HER2-positive human SK-BR-3 cells assessed as cell growth inhibition incubated for 72 hrs by sulforhodamine B assay; type: functional, cell-based; settings: SK-BR-3, 72 h
[23] = Selectivity ratio, ratio of IC50 for antiproliferative activity against ER/PR/HER2-negative human MDA-MB-231 cells to IC50 for antiproliferative activity against […] human MCF7 cells; type: functional
[24] = Toxicity in chick embryo xenografted with human […] cells assessed as mortality at 1 ug, iv incubated for 17 days; type: organism-based, Gallus gallus; settings: chicken, in vivo, 408 h, dose 1 µg, time 17 day
MCF7 [25] = assay: Antiproliferative activity against […] human MCF7 cells assessed as cell growth inhibition incubated for 72 hrs by sulforhodamine B assay; type: functional, cell-based; settings: MCF7, 72 h

COc1ccc(/C=C\c2cc(OC)c(OC)c(OC)c2)cc1O [COMBRETASTATIN A4]
IC50 (M21): 0.4 nM
Activity (MCF7 [1]): 8%
Ratio IC50 [2]: 2.9
Ratio IC50 [3]: 0.66
Activity (MCF7 [4]): 20.1%
IC50 (HT-1080 [5]): 6 nM
Activity (MCF7 [6]): 72%
IC50 (HT-1080 [7]): 1.3 nM
IC50 (HT-1080 [8]): 2.1 nM
IC50 (MCF7 [9]): 9 nM
Ratio IC50 [10]: 0.62
Ratio IC50 [11]: 0.044
IC50 (HT-29): 6 nM

COc1cc(OS(=O)(=O)c2ccc(N3CCNC3=O)cc2)cc(OC)c1OC
IC50 (M21): 40 nM
Activity (MCF7 [12]): 28%
Activity (HT-1080 [13]): 79%
IC50 (MDA-MB-231): 6.9 nM
Ratio IC50 [3]: 1.6
Activity (MCF7 [14]): 63%
Ratio IC50 [15]: 1.3
Activity (Tubulin (Homo sapiens)): Active
Activity (MCF7 [16]): 9%
Activity (HT-1080 [17]): 68%
Activity (HT-1080 [18]): 49%
Ratio IC50 [19]: 2.3
IC50 (MCF7 [9]): 25 nM
IC50 (T47D): 13 nM
Activity [20]: Non-Toxic
IC50 (MDA-MB-468): 5.3 nM
Ratio IC50 [21]: 0.53
Activity [22]: Non-Toxic
IC50 (SK-BR-3): 3 nM
Ratio IC50 [23]: 2
Ratio IC50 [11]: 1.6
Activity [24]: Non-Toxic
IC50 (MCF7 [25]): 3.4 nM
IC50 (HT-29): 40 nM
